According to patent US20220288075A1, “METHOD AND COMPOSITION FOR TREATING PAIN” (ACADEMIA SINICA, priority 2019, published 2022):

What was measured:
pERK = pERK expression of L4 DRG neurons after intramuscular LPC16:0 injection; format: in vivo, mice
Experimental: (§1) The chronic pain model was based on the repeated acid injection model protocol by Sluka et al.^44, and LPC16:0 was used for pain induction to replace acidic saline injection. Mice received in the left gastrocnemius muscle two intramuscular injections (1 day apart) of 10 μL neutral saline solution (pH 7.4; buffered with HEPES) containing vehicle (0.96% ethanol) or LPC16:0 (4.8 nmol; Avanti Polar Lipids Inc)^30. In the experiment of pharmacological inhibition of ASIC3, APETx2 (50 pmole; Alomone, Israel), a selective ASIC3 antagonist, was co-injected with LPC16:0.
Immunofluorescence staining. Animals were euthanized with urethane ([…], i.p.) and perfused with 4% paraformaldehyde (PFA) at P0. L4 dorsal root ganglia (DRG) were extracted and immediately post-fixed in 4% PFA for 60 min, and then replaced with 30% sucrose overnight. DRG were embedded in OCT compound and sectioned (12 μm) with a Leica cryostat. […] Images were acquired and quantified under a Carl Zeiss fluorescence microscope with a 10× objective lens. All images from the same experiment were acquired with the same settings, including fluorescence intensity, acquisition time, and image resolution. The immunoreactivity of pERK and the overlap between pERK and neuron markers (SP, CGRP, IB4 or N52) were assessed using Fiji (ImageJ, NIH) software, with the experimenter blinded to treatment and/or genotype. […]

WT mice = assay: LPC16:0 / lipid injection in wild-type mice, mechanical hypersensitivity by von Frey test; format: in vivo; details: for long-lasting hyperalgesia / priming-like effect after repeated intramuscular injection: two i.m. injections, 4.8 nmol, 10C
[1] = system: mice with repeated LPC16:0 injection; assay: Repeated LPC16:0 injection model, drug effects by von Frey test; format: in vivo; details: for analgesic effect in repeated LPC16:0 injection model (von Frey): intraperitoneal administration, FIG. 10E
Experimental: as §1
(§2) Animals were placed on an elevated mesh platform, and a 0.2-mN von Frey filament was applied to the plantar surface of both hind paws. A positive response was defined as lifting, shaking, guarding, or licking paws when the stimulus was applied. For each paw, the filament was applied 5 times at 30-sec intervals.
Analgesic drugs: Pregabalin (0.3, 1, 3 or 10 mg/kg bodyweight, i.p.; Toronto Research Chemicals), morphine (0.3, 1, 3 or 10 mg/kg bodyweight, i.p.), diclofenac (1, 3 or 10 mg/kg bodyweight, i.p.; Sigma-Aldrich) or vehicle (0.9% saline) was administered, and the effect of each drug was evaluated by testing 6 mice. Sensory testing was carried out at 30 min and 1, 3 and 24 hours after injection of vehicle or drugs, with the experimenter blinded to the dose of test drugs. […] The 3Rs stand for Replace, Reduce, Refine and represent a responsible approach to animal testing. The goal is to replace animal experiments whenever possible. In addition, the aim is to keep the number of animal experiments as low as possible and to only use the necessary number of animals. Lastly, it is vital to ensure that the distress inflicted upon the animals is as low as possible. Therefore, all the pharmacological studies were conducted on post-RISS day 1 and day 4 (3 days apart, within 1 week after RISS). Mice of post-stress day 1 and day 4 were assigned randomly but equally to each tested dosage for counterbalance. During testing, the experimenter was blind to the individual treatment assignments.
Intrathecal injection was conducted through transcutaneous injection with a 30-gauge needle at the L5-6 dorsal spinal process under anesthesia of isoflurane (1.5%).

RISS mice = assay: RISS (repeated and intermittent sound stress) model, sensory testing (von Frey, muscle withdrawal threshold, Hargreaves); format: in vivo; details: i.p. injection, post-RISS day 1 and 4; FIG. 1G
Description: Sound stressors were applied as described^14, 43 with modification. Mice were placed (3 per cage) in a 20×30×15 cm bedding cage, which was kept 25 cm below a speaker, inside a 40×50×35 cm sound-insulated box. A speaker emitted pure tones at 5 frequencies (5, 11, 13, 15 and 19 kHz) with random amplitudes varied over time for each frequency (0, 20, 60, 90, and 100 dB sound). Each tone stimulus lasted for 5 or 10 sec in random order, and mice were stimulated continuously without interval. The sound stressors continued for 30 min as a set. In the original SS (sound stress) protocol, a set of 30-min stimuli was given once a day on days 1, 3, and 4 (FIG. 1A)^14. The RISS model intensified the stress protocol by increasing the stimulus frequency: a set of sound stimulus was repeated every 3 hours for 6 times overnight (from 16:00 to 10:00), followed by resting silence for 6 hours (from 10:00 to 16:00). The procedure was repeated on days 1, 3, and 4 as for the SS protocol. The control groups were placed in similar chambers for 4 days without stress exposure. Both groups of mice had access to food and water freely during the stress period. After the stimulus procedure, mice were returned to their original home cages in the animal care facility. In both the SS and RISS protocols, the day after completing the stress stimuli is called P0; the post-stress day 1, P1; and so on. In the experimental design of the […] single-day stimuli of intermittent SS (SISS), the day after SISS is called P′0; the post-stress day 1, P′1; and so on.
as §2
Mice were placed individually in Acrylic cubicles mounted on a glass surface maintained at 30° C. The test was performed after acclimatization. The thermal stimulus of the radiant heat was then applied to the plantar surface of each hind paw. Each mouse was tested in three sequential trials with an interval of 2-3 min. The assay cutoff was set at 30 sec to prevent tissue damage. Paw withdrawal latencies were calculated as the mean of three measures.
Muscle withdrawal thresholds were evaluated as described^46. […]
Analgesic drugs: Pregabalin (0.3, 1, 3 or 10 mg/kg bodyweight, i.p.; Toronto Research Chemicals), morphine (0.3, 1, 3 or 10 mg/kg bodyweight, i.p.), diclofenac (1, 3 or 10 mg/kg bodyweight, i.p.; Sigma-Aldrich) or vehicle (0.9% saline) was administered, and the effect of each drug was evaluated by testing 6 mice. […]

Compound | long-lasting hyperalgesia / priming-like effect after repeated intramuscular injection (WT mice; FIG. 3J) | analgesic effect on RISS-induced hyperalgesia (mechanical, muscle, thermal) (RISS mice) | analgesic effect in repeated LPC16:0 injection model (von Frey) [1] | other results
CCCCCCCCCCCCCCCC(=O)OC[C@@H](O)COP(=O)([O-])OCC[N+](C)(C)C [LPC16:0, lysophosphatidylcholine (LPC) 16:0] | induced long-lasting hyperalgesic changes | – | – | pERK expression in L4 DRG neurons after LPC injection vs vehicle (pERK; i.m. injection, FIG. 10A, 10B): increased; hyperalgesic responses after intramuscular injection, dose dependence (WT mice; 4.8, 1.6 and 0.48 nmol i.m., FIG. 3I): dose-dependently evoked hyperalgesic responses; hyperalgesia after single intramuscular injection (WT mice; single i.m. injection, FIG. 3J): induced transient bilateral hyperalgesia; hyperalgesia after repeated intraplantar injection (WT mice; two intraplantar injections, 4.8 nmole, FIG. 3J right): only induced transient hyperalgesia
CCCCCCCCCCCCCCCCCC(=O)OC[C@@H](O)COP(=O)([O-])OCC[N+](C)(C)C [LPC18:0] | not observed | – | – | –
CCCCCCCCCCCCC/C=C/[C@@H](O)[C@H](COP(=O)([O-])OCC[N+](C)(C)C)NC(=O)CCCCCCCCCCCCCCCCC [SM(d18:1/18:0)] | not observed | – | – | –
N#CC(=C(/N)Sc1ccccc1N)/C(C#N)=C(\N)Sc1ccccc1N [U0126] | – | – | – | LPC16:0-induced acute hyperalgesia ([1]; mouse, in vivo): prevented; chronic hyperalgesia induced by the second LPC16:0 injection ([1]; mouse, in vivo): impeded the development of chronic hyperalgesia
O=C(O)Cc1ccccc1Nc1c(Cl)cccc1Cl [diclofenac] | – | no significant analgesic effects | not | –
CN1CC[C@]23c4c5ccc(O)c4O[C@H]2[C@@H](O)C=C[C@H]3[C@H]1C5 [morphine] | – | no significant analgesic effects | not | –
CC(C)C[C@H](CN)CC(=O)O [pregabalin] | – | dose-dependently reversed hyperalgesia | responded | –
APETx2 | – | – | – | chronic hypersensitivity after repeated LPC16:0 injection ([1]; APETx2 50 pmole co-injected i.m. with LPC16:0, FIG. 3K left): significantly reduced; transient (acute) hyperalgesia after LPC16:0 injection ([1]; APETx2 co-injected i.m. with LPC16:0, vs vehicle, FIG. 3K left): transient hyperalgesia was observed; LPC16:0 injection-induced pERK expression in DRG neurons (pERK; APETx2 co-injected with LPC16:0, FIG. 10F, 10G): reduced
